According to patent US8957000B2, “Use of sarmentine and its analogs for controlling plant pests” (Marrone Bio Innovations, Inc., priority 2009, dated 2015):

Legend:
[1] = system: Sedge (Cyperus difformis L.); assay: Herbicidal spectrum, foliar spraying; format: in vivo; conditions: foliar spray 5 mg/mL
From the text: (§1) All weed, sedge and crop seedlings were planted in 8 cm×8 cm×7.2 cm or 10 cm×10 cm×9 cm plastic pots. Seedlings including pigweed (Amaranthus retroflexus, L.), barnyard grass (Echinochloa crusgalli L.), bindweed (Convolvulus arvensis L.), crabgrass (Digitaria sanguinalis L.), dandelion (Taraxacum officinale F.), lambsquarters (Chenopodium album L.), bluegrass (Poa annua L.), wild mustard (Brassica kaber L.), black nightshade (Solanum nigrum L.), curly dock (Rumex crispus L.), horseweed (Conyza Canadensis L.), sweet corn (Zea may S.) and wheat PR 1404 (Triticum aestivum L.) were planted in Super Soil potting soil. Seedlings including rice M-104 (Oryza saliva L.), sedge (Cyperus difformis L.) and sprangletop (Leptochloa fascicularis Lam) were planted in mud which was collected from rice field (Woodland, Calif., USA). When treated, all seedlings were 15 days old except for rice (10 days), wheat (20 days), corn (20 days) sprangletop (20 days old), sedge (20 days old) and horse weed (70 days old).
(§2) Herbicidal activity of the active compound and synthesized compounds was evaluated by foliar spraying. Spraying carrier solution contained 2% ethanol, 0.2% glycosperse O-20 and 0.1% sodium lauryl sulfate. Freshly made solution with the evaluated compound at a concentration of 5 mg/mL was used. In the spectrum study, spraying volume was dependent on the foliar surface area, ranging from approximately 1 to 3 mL/pot plants. One or two pots of plants were treated for each. Number of pots was dependent on both foliar area and availability. In the structure-activity relationship study, one pot of barnyard grass was used and the spraying volume of each compound was 3 mL of 5 mg/mL.
(§3) The optimal concentration of sarmentine was 5 mg/mL for excellent control of barnyard grass (Figure 2). Therefore, such a concentration was subjected to herbicidal spectrum study. Due to the hydrophobic property of sarmentine, a carrier solution containing 0.2% glycosperse O-20, 2% ethanol and 0.1% sodium lauryl sulfate was used. Although this solution contains a high concentration of surfactants, sarmentine can stay suspended in this solution no more than 15 min. Therefore, sarmentine was made freshly just before spraying.

[2] = system: Pigweed (Amaranthus retroflexus, L.); assay: Herbicidal spectrum, foliar spraying; format: in vivo; conditions: foliar spray 5 mg/mL
From the text: as §1, §2, §3

[3] = system: Black nightshade (Solanum nigrum L.); assay: Herbicidal spectrum, foliar spraying; format: in vivo; conditions: foliar spray 5 mg/mL
From the text: as §1, §2, §3

[4] = system: Curly dock (Rumex crispus L.); assay: Herbicidal spectrum, foliar spraying; format: in vivo; conditions: foliar spray 5 mg/mL
From the text: as §1, §2, §3

[5] = system: Sprangletop (Leptochloa fascicularis Lam.); assay: Herbicidal spectrum, foliar spraying; format: in vivo; conditions: foliar spray 5 mg/mL
From the text: as §1, §2, §3

[6] = system: Rice (M 104) (Oryza saliva L); assay: Herbicidal spectrum, foliar spraying; format: in vivo; conditions: foliar spray 5 mg/mL
From the text: as §1, §2, §3

[7] = system: Crabgrass (Digitaria sanguinalis L.); assay: Herbicidal spectrum, foliar spraying; format: in vivo; conditions: foliar spray 5 mg/mL
From the text: as §1, §2, §3

[8] = system: Bindweed (Convolvulus arvensis, L.); assay: Herbicidal spectrum, foliar spraying; format: in vivo; conditions: foliar spray 5 mg/mL
From the text: as §1, §2, §3

[9] = system: Dandelion (Taraxacum officinale F.); assay: Herbicidal spectrum, foliar spraying; format: in vivo; conditions: foliar spray 5 mg/mL
From the text: as §1, §2, §3

Bluegrass (Poa annua L.) = assay: Herbicidal spectrum, foliar spraying; format: in vivo; conditions: foliar spray 5 mg/mL
From the text: as §1, §2, §3

[10] = system: Horse weed (Conyza Canadensis L.); assay: Herbicidal spectrum, foliar spraying; format: in vivo; conditions: foliar spray 5 mg/mL
From the text: as §1, §2, §3

[11] = system: Wheat (PR 1404) (Triticum aestivum L.); assay: Herbicidal spectrum, foliar spraying; format: in vivo; conditions: foliar spray 5 mg/mL
From the text: as §1, §2, §3

[12] = system: Lambsquarters (Chenopodium album L.); assay: Herbicidal spectrum, foliar spraying; format: in vivo; conditions: foliar spray 5 mg/mL
From the text: as §1, §2, §3

[13] = system: Wild mustard (Brassica kaber L.); assay: Herbicidal spectrum, foliar spraying; format: in vivo; conditions: foliar spray 5 mg/mL
From the text: as §1, §2, §3

Sweet corn (Zea mays S.) = assay: Herbicidal spectrum, foliar spraying; format: in vivo; conditions: foliar spray 5 mg/mL
From the text: as §1, §2, §3

plants = assay: Symptom of phytotoxic activity after spraying; format: in vivo; conditions: sarmentine solution
Method: as §2
Sarmentine is a contact phytotoxic compound. When plants were treated with sarmentine solution, slightly black tiny spots would first show on the leaves and then became bigger and bigger until they covered the whole leaves, especially obvious on the barnyard grass. […] This symptom was observed very similarly to that of middle-chain fatty acids such as decanoic acid (21, Table 4) and 2E-decenoic acid (22, Table 3) during the SAR study.

[14] = system: Barnyard grass (Echinochloa crusgalli L.); assay: Herbicidal activity, foliar spraying (spectrum and SAR study); format: in vivo
From the text: as §1, §2, §3

[15] = Suspension of sarmentine in spraying carrier solution; format: physicochemical; conditions: 0.2% glycosperse O-20, 2% ethanol and 0.1% sodium lauryl sulfate
Method: as §3

[16] = 20 days old, 1 to 3 mL/pot, at least 3 days after spraying
[17] = 15 days old, 1 to 3 mL/pot, at least 3 days after spraying

With `CCCCC/C=C/C=C/C(=O)N1CCCC1` [sarmentine, N-(2E,4E-Decadienoyl) pyrrolidine] the “Efficacy of phytotoxic activity” value [1, 16] was “III (III (20-40%))”, the “Phytotoxic activity (in words)” value [1] was “Slightly phytotoxic activity” and the “Efficacy of phytotoxic activity” value [2, 17] was “VI (VI (80-100%))”. The “Phytotoxic activity (in words)” value [2] was “highly phytotoxic activity”, the “Efficacy of phytotoxic activity” value [3, 17] was “VI (VI (80-100%))” and the “Phytotoxic activity (in words)” value [3] was “highly phytotoxic activity”. The “Efficacy of phytotoxic activity” value [4, 17] was “VI (VI (80-100%))”, the “Phytotoxic activity (in words)” value [4] was “highly phytotoxic activity” and the “Efficacy of phytotoxic activity” value [5, 16] was “VI (VI (80-100%))”. For the same compound, the “Phytotoxic activity (in words)” value [5] was “highly phytotoxic activity”, the “Efficacy of phytotoxic activity” value ([6]; rice M-104, 10 days old, 1 to 3 mL/pot, at least 3 days after spraying) was “I” and the “Phytotoxic activity (in words)” value ([6]; rice plants, after 10 days) was “No visible phytotoxic activity”. The “Efficacy of phytotoxic activity” value [7, 17] was “VI (VI (80-100%))”, the “Phytotoxic activity (in words)” value [7] was “highly phytotoxic activity” and the “Efficacy of phytotoxic activity” value [8, 17] was “VI (VI (80-100%))”. The “Phytotoxic activity (in words)” value [8] was “highly phytotoxic activity”, the “Efficacy of phytotoxic activity” value [9, 17] was “VI (VI (80-100%))” and the “Phytotoxic activity (in words)” value [9] was “highly phytotoxic activity”. For the same compound, the “Phytotoxic activity (in words)” value (Bluegrass (Poa annua L.); blue grass) was “highly phytotoxic activity”, the “Efficacy of phytotoxic activity” value (Bluegrass (Poa annua L.); bluegrass, 15 days old, 1 to 3 mL/pot, at least 3 days after spraying) was “VI (VI (80-100%))” and the “Efficacy of phytotoxic activity” value ([10]; horse weed, 70 days old, 1 to 3 mL/pot, at least 3 days after spraying) was “II (II (<20%))”. The “Phytotoxic activity (in words)” value ([10]; horseweed (70-day-old)) was “Slightly phytotoxic activity”, the “Efficacy of phytotoxic activity” value ([11]; wheat PR 1404, 20 days old, 1 to 3 mL/pot, at least 3 days after spraying) was “VI (VI (80-100%))” and the “Phytotoxic activity (in words)” value ([11]; wheat) was “highly phytotoxic activity”. The “Efficacy of phytotoxic activity” value [12, 17] was “VI (VI (80-100%))”, the “Phytotoxic activity (in words)” value [12] was “highly phytotoxic activity” and the “Efficacy of phytotoxic activity” value [13, 17] was “VI (VI (80-100%))”. For the same compound, the “Phytotoxic activity (in words)” value [13] was “highly phytotoxic activity”, the “Efficacy of phytotoxic activity” value (Sweet corn (Zea mays S.); [16]) was “VI (VI (80-100%))” and the “Phytotoxic activity (in words)” value (Sweet corn (Zea mays S.)) was “highly phytotoxic activity”. The “Time after spraying within which predominant phytotoxic activity happened” value (plants) was at most 48 h, the pest or weed control at 5000 µg/mL ([14]; Echinochloa crus-galli, 72 h, read-out: Efficacy of phytotoxic activity, spectrum study, barnyard grass, 15 days old, foliar spray 5 mg/mL, 1 to 3 mL/pot, at least 3 days after spraying) was 80 to 100% and the “Efficacy of phytotoxic activity” value ([14]; SAR study, one pot of barnyard grass, foliar spray 3 mL of 5 mg/mL, at least 3 days after spraying) was “VI (VI (80-100%))”. For the same compound, the “Optimal concentration for excellent control of barnyard grass” value ([14]; foliar spraying, Figure 2) was 5 mg/mL, the “Phytotoxic activity (in words)” value ([14]; spectrum study, barnyard grass, foliar spray 5 mg/mL) was “highly phytotoxic activity” and the “Time sarmentine can stay suspended in carrier solution” value [15] was “no more than 15 min”.
